Measurements from paper PMC11003996 (Cell Discovery, 2024).
“And” between values parts separate entries of the source, which are not always exact repeats. Equal entries are not always repeated.

How the values were obtained:
SARS-CoV-2 3CLpro T25I = assay type: biochemical
SARS-CoV-2 3CLpro T25V = assay type: biochemical
SARS-CoV-2 3CLpro M49I = assay type: biochemical
[1] = tested on: SARS-CoV-2 3CLpro T25V in HEK 293T cells; assay type: cell-based
[2] = tested on: SARS-CoV-2 3CLpro M49I in HEK 293T cells; assay type: cell-based
[3] = tested on: SARS-CoV-2 3CLpro L50F/E166V in HEK 293T cells; assay type: cell-based

Structure (SMILES)	Fold change in IC50 (relative to WT) (SARS-CoV-2 3CLpro T25I)	Fold change in IC50 (relative to WT) (SARS-CoV-2 3CLpro T25V)	Fold change in IC50 (relative to WT) (SARS-CoV-2 3CLpro M49I)	Inhibition of 3CLpro in HEK 293T cells: Fold change in IC50 (relative to WT) [1]	Inhibition of 3CLpro in HEK 293T cells: Fold change in IC50 (relative to WT) [2]	Inhibition of 3CLpro in HEK 293T cells: Fold change in IC50 (relative to WT) [3]
Cn1cnc(Cn2c(=O)[nH]/c(=N\c3cc4cn(C)nc4cc3Cl)n(Cc3cc(F)c(F)cc3F)c2=O)n1 [ensitrelvir]	3.2	5.7	4.5	3.3	21.8 and ~20	
CC(C)(C)[C@H](NC(=O)C(F)(F)F)C(=O)N1C[C@H]2[C@@H]([C@H]1C(=O)N[C@H](C#N)C[C@@H]1CCNC1=O)C2(C)C [nirmatrelvir]						18.4
